Bridges are numbered along the chain shown (N, C = ends). Where no end group is shown, it is not given here.

This is an account of results in US20220193185A1, “COMBINATION OF SYNTHETIC PEPTIDES WITH AFFINITY TO THE TGF-ß RECEPTOR AND WITH AFFINITY TO THE IL-10 RECEPTOR, PHARMACEUTICAL COMPOSITION AND THEIR USE AS IMMUNOMODULATORS IN THE TREATMENT OF AUTOIMMUNE, INFLAMMATORY OR ALLERGIC DISEASES” (Universidade Federal de Uberlândia, priority 2019, published 2022).

The test system of assay [1] is TH2 polarization in skin-draining inguinal lymph node cells. As to the kind of experiment: TH2 polarization in IL-4 reporter (4get) mice, GFP+CD4+ lymphocytes by flow cytometry. In kind it is in vivo. Particulars: 5 days after immunization, administered with grass pollen extract. From the text: TH2 lymphocytes produce cytokines such as IL-4, IL-5 and IL-13 and lead to the class shift of immunoglobulin production from B cells to IgE, which triggers the allergic reaction. To investigate whether synthesized peptides mimetic to TGF-β1 can modulate TH2 polarization in the presence of grass pollen extract or rPhl p 5, we used an IL-4 reporter mouse. 4get mice express GFP as part of a bicistronic IL-4-IRES-GFP mRNA, allowing the identification of cells expressing IL-4 in situ during an allergen-induced TH2 response. In this experiment, we use skin-draining inguinal lymph node cells to monitor the TH2 response. […] In summary, in this IL-4 mice model, Pep 2 administered in combination with grass pollen extract was able to inhibit TH2 polarization in skin-draining inguinal lymph node cells.
Background: In flow cytometry, cells or beads pass a laser one at a time.

Assay [2] concerns TGF-β1 receptor on A549 cells. Nature of the assay: ELISA on cells of the A549 line using anti-TGF-β1 antibody. The assay is classed as binding, human. Here is the method:
The peptides described in this patent application were selected using the Phage Display (PD) methodology. The selection was performed by evaluating the ability of said peptides to recognize the TGF-β1 receptor on A549 cells, using an ELISA assay. MaxiSorp 96-well microtiter plates were coated with 1×10^6 cells diluted in PBS and incubated overnight at 4° C. Cells were blocked with 3% PBS-BSA for 1 h at 37° C., washed once with PBS and incubated with […] of each TGF-β1 mimetic peptide or 5 ng/ml of recombinant TGF-β1 for 1 h at 37° C. After washing, the plate was incubated for 1 h at 37° C. with anti-TGF-β1 antibody. The plate was washed and incubated with HRP-labeled anti-human IgG antibody for 1 h at 37° C. After washing, TMB substrate solution was added to the plate; the reaction was stopped by adding the 2N H2SO4 solution and read at 492 nm in a microplate reader.
To investigate whether the synthesized peptides could bind to cell receptors, an ELISA assay was performed on cells of the A549 line using commercial anti-TGF-β1 antibody.

The test system of assay [3] is mice sensitized by Phl p5. Nature of the assay: murine sensitization model with recombinant Phl p5: antibody response. The assay is classed as in vivo. From the text:
We then tested the ability of the synthesized TGF-β1 mimetic peptides to modulate the in vivo immune response during allergic sensitization to Phl p 5. We selected as an example Pep 2-TGF-β1 to show the results. […] Therefore, Pep 2-TGF-β1 modulated Phl p5-specific antibody responses in mice.

Assay [4] has as its system splenocytes of mice sensitized with Phl p 5. Nature of the assay: ELISPOT of splenocytes stimulated with Phl p5. In kind it is in vivo. Here is the method:
(§1) To determine the number of splenic cells producing IFN-g, IL-4 and IL-10 in all groups of mice, an ELISPOT assay was performed. […] To investigate the cytokine profile in supernatants from restimulated splenocytes, a Luminex Multiplex cytokine analysis kit was used. […] Furthermore, an increase in IL-10 levels was observed.

Assay [5] shares this test system. As to the kind of experiment: Luminex Multiplex cytokine analysis of supernatants from restimulated splenocytes. The assay is classed as in vivo. Here is the method: as §1
A further assay relates to Treg cells. Nature of the assay: flow cytometry of CD4+CD25+Foxp3+ cells in splenocytes from BALB/c mice. In kind it is in vivo. From the text: To investigate the influence of synthesized peptides mimetic to TGF-β1 on Treg induction specific to Phl p5 during allergic sensitization, we analyzed splenocytes from BALB/c mice using flow cytometry. We sought to investigate CD4+CD25+Foxp3+cells expressing GATA3, CTLA4 or KI67, as these factors are necessary for the survival and function of Treg cells. […] The percentage of CD4+CD25+Foxp3+T cells expressing the CTLA4 factor in mice without sensitization and sensitized with Phl p 5 was 5.62% and 9.46%, respectively, while in mice treated with Pep 2-TGF-β1 this value was 12.5% (FIG. 10C-D).

The subject of a further assay is TLR4 signaling pathway. Nature of the assay: TLR4 signaling pathway in HEK cells, SEAP production (IL-10 mimetic peptides). In kind it is cell-based. As to conditions: cells pretreated with LPS 100 ng/ml, peptides added; 12 hours. Here is the method: (§2) In order to investigate the ability of synthetic peptides with affinity to the Interleukin-10 receptor to interfere in the NFkB, IFN and TLR4 pathways, reporter cell lines were used. To analyze whether the isolated peptides (without activation molecules) could induce any type of activation, the isolated peptides were tested in cell lines during 12, 24 and 48 hours of treatment. […] As an example, FIG. 13A, FIG. 13B, and FIG. 13C show an analysis of NFkB expression after stimulation with the synthesized IL-10 receptor affinity synthetic peptides described herein. Cells were treated for 12, 24 and 48 hours with the synthesized peptides Pep 1-IL10, Pep 2-IL10, Pep 3-IL10 and Pep 4-IL10, at different concentrations, without activating molecules. Luciferase was then measured after 12 hours of treatment (FIG. 13A), 24 hours of treatment (FIG. 13B) and 48 hours of treatment (FIG. 13C). […] TNF-α (200 ng/mL) was used as a positive control.
HEK cells were used to investigate the ability of the synthesized peptides Pep 1-IL10, Pep 2-IL10, Pep 3-IL10 and Pep 4-IL10 to modulate the activation of the TLR4 signaling pathway after 12 hours of treatment. […]
In the assay shown by FIG. 14A cells were treated 1 hour with peptides and LPS (100 ng/ml) was added. SEAP production was measured after 12 hours of treatment. […] SEAP production was measured after 12 hours of treatment. […]

Another assay has as its system NFkB pathway. As to the kind of experiment: NFkB expression in Jurkat-Dual reporter cells, luciferase (IL-10 mimetic peptides). In kind it is cell-based. Particulars: without activating molecules; 12, 24 and 48 hours; different concentrations. The procedure: as §2
The assay was then carried out using TNF-α as activation molecule not only in the control, but after a pretreatment with the synthesized peptides Pep 1-IL10, Pep 2-IL10, Pep 3-IL10 and Pep 4-IL10, at different concentrations. All peptides were able to modulate NFKB activation after 12, 24 and 48 hours, with different results depending on the concentrations used. […] In the assays shown by FIGS. 14 A, B and C, analysis of NFkB expression was performed in Jurkat-Dual reporter cells. Cells were treated for 1 hour with peptides and TNF-α (200 ng/ml) added. Luciferase was measured after 12 hours of treatment (FIG. 14A), 24 hours of treatment (FIG. 14B) and 48 hours of treatment (FIG. 14C).
Another assay was then performed in which cells were pretreated with TNF-α and the synthesized peptides Pep 1-IL10, Pep 2-IL10, Pep 3-IL10 and Pep 4-IL10, at different concentrations, were added later. All peptides were able to modulate NFKB activation after 12, 24 and 48 hours, with different results depending on the concentrations used. The most significant results will be described below. […] After 48 hours of treatment, Pep 1-IL-10 at a concentration of 0.001 μM (P<0.05) was the one that obtained a result with the highest statistical significance in the decrease of NFKB signaling (FIG. 15C). In the assays shown by FIGS. 15 A, B and C, analysis of NFkB expression was performed in Jurkat-Dual reporter cells. Cells were treated for 1 hour with TNF-α (200 ng/ml) and peptides were added. Luciferase was measured after 12 hours of treatment (FIG. 15A), 24 hours of treatment (FIG. 15B) and 48 hours of treatment (FIG. 15C). TNF-α (200 ng/mL) was used as a positive control and rlL-10 (recombinant Interleukin-10) (0.4 ng/mL) as a negative control. *P<0.05; **P<0.005; ***P<0.0005.

Another assay relates to IFN signaling pathway. Nature of the assay: IFN signaling pathway in Jurkat-Dual reporter cells, SEAP production. As to conditions: after 12, 24 and 48 hours; results depend on concentration. In kind it is cell-based. Here is the method: as §2
The most significant results will be described below. […] When cells were pretreated with IFN, although peptides at some concentrations indicated results, they were not statistically sufficient. Therefore, we cannot confirm whether they were able to interfere with pathway activation (FIGS. 17 A, B and C) in an equal or better way than the negative control (rIL-10). In the assays shown by FIGS. 16 (A, B and C) and FIGS. 17 (A, B and C), analysis of IFN expression was performed in Jurkat-Dual reporter cells. In the assays shown by FIGS. 16 A, B and C, cells were treated for 1 hour with peptides with further addition of IFN-α (104 EU/ml). Secreted Embryonic Alkaline Phosphatase (SEAP) production was measured after 12 hours of treatment (FIG. 16A), 24 hours of treatment (FIG. 16 B) and 48 hours of treatment (FIG. 16 C). In the assays shown by FIGS. 17A, B and C, cells were treated for 1 hour with IFN-α (104 EU/ml) with further addition of the peptides. SEAP production was measured after (A) 12 hours of treatment (B), 24 hours of treatment and (C) 48 hours of treatment. IFN-α (104 EU/ml) was used as a positive control and rlL-10 (0.4 ng/ml) as a negative control. *P<0.05.

Turning to “Pep 2-TGF-β1: synthetic peptide with affinity to the TGF-β receptor, SEQ ID N 02, with disulfide bridges (HACESPLKRQCGGGS; disulfide 3-11)”, the “TH2 polarization (GFP+CD4+ lymphocytes)” value in assay [1] was “suppressed TH2 polarization”. Also, in assay [2], the “recognition of receptor-bound peptide by anti-TGF-β1 antibody compared to recombinant TGF-β1” value is “in the same way that the antibody recognized the TGF-β1 recombinant molecule”. Further, the “degranulation of RBL cells sensitized with sera from treated mice vs Phl p 5 immunized group” value in assay [3] (1 μM, intradermal immunization with Phl p5) was “significantly lower levels of degranulation”. Further, in assay [3] (mice sensitized by Phl p5), the “serum IgA levels (ELISA)” value is on record as “increased levels of IgA”, the “serum IgE levels (ELISA)” value is “suppressed” and the “serum IgG1 levels (ELISA)” value was “suppressed”. The “serum IgG2a levels (ELISA)” value in assay [3] (mice sensitized by Phl p5, not statistically significant) is given as “suppressed”. Moreover, in assay [4], the “IFN-g secreted by splenocytes (ELISPOT) vs untreated mice” value is on record as “significantly lower”, the “IL-4 secreted by splenocytes (ELISPOT) vs untreated mice” value was “significantly lower” and the “IL-10 levels of splenocytes (ELISPOT) vs untreated mice” value is reported as “significantly higher”. In addition, in assay [5], the “IFN-g secretion in splenocyte supernatant vs untreated mice” value is “significantly lower”, the “IL-2 secretion in splenocyte supernatant vs untreated mice” value is “significantly lower”, the “IL-4 secretion in splenocyte supernatant vs untreated mice” value is on record as “significantly lower” and the “IL-5 secretion in splenocyte supernatant vs untreated mice” value was “significantly lower”. In addition, in assay [5], the “IL-10 secretion in splenocyte supernatant vs untreated mice” value is listed as “higher” and the “IL-13 secretion in splenocyte supernatant vs untreated mice” value was “significantly lower”. Also, the “Treg cells expressing the factor GATA3 (of total T cells)” value in the assay with Treg cells (mice sensitized with Phl p5 and treated, control 16.1%, sensitized 16.2%) worked out at 43.9%. Also, the “percentage of CD4+CD25+Foxp3+T cells expressing the CTLA4 factor” value with Treg cells (mice sensitized with Phl p5 and treated, no sensitization 5.62%, sensitized 9.46%) worked out at 12.5%. In addition, the “percentage of CD4+CD25+Foxp3+cells expressing factor KI67” value in the assay on Treg cells (vs Phl p5-sensitized mice, not significantly different) was “enriched”.

As for “Pep 2-IL-10: synthetic peptide with affinity to the Interleukin-10 receptor, SEQ ID NO: 10, without disulfide bridge (HASSAVIKSSSGGGS)”, the “concentrations that significantly reduced TLR4 pathway activation” value in the assay on TLR4 signaling pathway is 100 μM (P<0.05), 1 μM (P<0.005), 0.5 μM (P<0.05), 0.1 μM (P<0.05), 0.05 μM (P<0.05) and 0.01 μM. Besides, the “induction of NFkB expression by peptides alone” value with NFkB pathway is recorded as “not able to induce any response”. For the same substance, the “modulation of the activation of the IFN signaling pathway” value in the assay on IFN signaling pathway is “able to modulate the activation of the IFN signaling pathway”.
